Assay results published in ChEMBL document CHEMBL3045868, “Synthesis and antibacterial activities of para-alkoxy phenyl--ketoaldehyde derivatives” (Med Chem Res, 2013).
≈ marks a conversion by molar mass, not a printed value.

Tests used:
Staphylococcus aureus [1] = assay: Antibacterial activity against Staphylococcus aureus clinical isolate 5 assessed as growth inhibition after 16 to 18 hr by NCCLS agar dilution method; type: functional
Staphylococcus aureus [2] = assay: Antibacterial activity against methicillin-resistant Staphylococcus aureus isolate 1 assessed as growth inhibition after 16 to 18 hr by NCCLS agar dilution method; type: functional

CO/N=C/CC(=O)c1ccc(OC)cc1
MIC (Staphylococcus aureus [1]): 8 µg/mL (≈ 38.6 µM) | MIC (Staphylococcus aureus [2]): 8 µg/mL (≈ 38.6 µM)
